Measured values: the supplement of paper PMC10307832

Legend:
Test in all cases: relative viability (nuclei count vs DMSO), 5 days (fraction); higher = more cells survive
HCC-366 = system: HCC-366
Method in brief: (§1)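 Relative viability is defined as nuclei in treated wells over nuclei in vehicle wells. Duplicate plates were run and medians reported. Lung cancer cell lines in 1536-well plates were dosed by pin tool one day after seeding, with one drug or with a fixed anchor-drug dose plus five library-drug doses (not always all listed) in √10 steps, and nuclei were counted after 5 days.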

HCC-44 = system: HCC-44
Method in brief: as §1

LOU-NH91 = system: LOU-NH91
Method in brief: as §1

NCI-H1437 = system: NCI-H1437
Method in brief: as §1

NCI-H1648 = system: NCI-H1648
Method in brief: as §1

NCI-H2085 = system: NCI-H2085
Method in brief: as §1

NCI-H3122 = system: NCI-H3122
Method in brief: as §1

A549 = system: A549
Method in brief: as §1

IA-LM = system: IA-LM
Method in brief: as §1

| SMILES | relative viability (HCC-366; first compound 0.08 µM) | relative viability (HCC-366; first compound 0.253 µM) | relative viability (HCC-366; first compound 0.8 µM) | relative viability (HCC-366; first compound 2.53 µM) | relative viability (HCC-44; first compound 0.08 µM) | relative viability (HCC-44; first compound 0.253 µM) | relative viability (HCC-44; first compound 0.8 µM) | relative viability (HCC-44; first compound 2.53 µM) | relative viability (LOU-NH91; first compound 0.08 µM) | relative viability (LOU-NH91; first compound 0.253 µM) | relative viability (LOU-NH91; first compound 0.8 µM) | relative viability (LOU-NH91; first compound 2.53 µM) | relative viability (NCI-H1437; first compound 0.08 µM) | relative viability (NCI-H1437; first compound 0.253 µM) | relative viability (NCI-H1437; first compound 0.8 µM) | relative viability (NCI-H1437; first compound 2.53 µM) | relative viability (NCI-H1648; first compound 0.08 µM) | relative viability (NCI-H1648; first compound 0.253 µM) | relative viability (NCI-H1648; first compound 0.8 µM) | relative viability (NCI-H1648; first compound 2.53 µM) | relative viability (NCI-H2085; first compound 0.08 µM) | relative viability (NCI-H2085; first compound 0.253 µM) | relative viability (NCI-H2085; first compound 0.8 µM) | relative viability (NCI-H2085; first compound 2.53 µM) | relative viability (NCI-H3122; first compound 0.08 µM) | relative viability (NCI-H3122; first compound 0.253 µM) | relative viability (NCI-H3122; first compound 0.8 µM) | relative viability (NCI-H3122; first compound 2.53 µM) | relative viability (A549; first compound 0.08 µM) | relative viability (A549; first compound 0.253 µM) | relative viability (A549; first compound 0.8 µM) | relative viability (A549; first compound 2.53 µM) | relative viability (IA-LM; first compound 0.08 µM) | relative viability (IA-LM; first compound 0.253 µM) | relative viability (IA-LM; first compound 0.8 µM) | relative viability (IA-LM; first compound 2.53 µM) |
| --- | --- | --- | --- | --- | --- | --- | --- | --- | --- | --- | --- | --- | --- | --- | --- | --- | --- | --- | --- | --- | --- | --- | --- | --- | --- | --- | --- | --- | --- | --- | --- | --- | --- | --- | --- | --- |
| COc1nc(C)cnc1NS(=O)(=O)c1cccnc1-c1ccc(-c2nnco2)cc1 [Zibotentan] + Nc1nc2[nH]cc(CCc3ccc(C(=O)N[C@@H](CCC(=O)O)C(=O)O)cc3)c2c(=O)[nH]1 [Pemetrexed] (partner 0.2 µM) | 0.163 | 0.179 | 0.0897 | 0.147 | 0.629 | 0.657 | 0.589 | 0.666 | 0.366 | 0.357 | 0.369 | 0.408 | 0.35 | 0.306 | 0.281 | 0.32 | 0.791 | 0.686 | 0.532 | 0.635 | 0.884 | 0.852 | 0.892 | 0.918 | 0.204 | 0.199 | 0.308 | 0.219 | – | – | – | – | – | – | – | – |
| COc1nc(C)cnc1NS(=O)(=O)c1cccnc1-c1ccc(-c2nnco2)cc1 [Zibotentan] + Nc1ncn([C@H]2C[C@H](O)[C@@H](CO)O2)c(=O)n1 [Decitabine] (partner 2 µM) | 0.391 | 0.317 | 0.331 | 0.358 | 1.01 | 0.924 | 1.01 | 0.988 | 0.799 | 0.78 | 0.879 | 0.815 | 0.534 | 0.545 | 0.564 | 0.556 | 0.544 | 0.464 | 0.519 | 0.461 | 0.566 | 0.54 | 0.592 | 0.56 | 0.472 | 0.379 | 0.357 | 0.377 | 0.232 | 0.266 | 0.305 | 0.285 | – | – | – | – |
| COc1nc(C)cnc1NS(=O)(=O)c1cccnc1-c1ccc(-c2nnco2)cc1 [Zibotentan] + O=C(CCCCCCC(=O)Nc1ccccc1)NO [Vorinostat] (partner 1 µM) | 0.461 | 0.248 | 0.21 | 0.358 | 1.12 | 1.08 | 1.02 | 1.08 | 0.941 | 0.78 | 0.953 | 0.947 | 1.05 | 0.823 | 0.834 | 0.828 | 0.574 | 0.331 | 0.54 | 0.483 | 0.762 | 0.766 | 0.769 | 0.824 | 1.05 | 1.03 | 1.02 | 1.02 | – | – | – | – | 0.881 | 0.981 | 0.9 | 0.939 |
